Values joined by “and” are separate entries in the source; they are usually repeats but may differ in a detail not shown here. Identical values can stand only once.

Assay in all cases: Broth microdilution MIC, Example 7 (NCL812 and analogues)
For orientation: Broth dilution looks for growth in wells or tubes with falling amounts of substance.

In experiment [1] the test system is MRSA. The format is cell-based, Staphylococcus aureus. The note with it: 24 hours, duplicate lines per compound. The method in brief: (§1)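 CLSI broth microdilution against two MRSA and two VRE strains, tested in duplicate with a third run if results differed by more than one two-fold dilution.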
Experiment [2] has as its system VRE. In kind it is cell-based, Enterococcus spp. The note with it: 24 hours, duplicate lines per compound. The method in brief: as §1
Experiment [3] deals with Escherichia coli. In kind it is cell-based. The settings on record: E. coli; 24 hours; duplicate lines per compound.
Experiment [4] relates to Pseudomonas aeruginosa. In kind it is cell-based. The settings on record: P. aeruginosa; 24 hours; duplicate lines per compound.

Turning to `Cl.N=C(NN=CC(=Cc1ccccc1)c1ccccc1)NN=CC(=Cc1ccccc1)c1ccccc1` [NCL 138], in experiment [1], the “MIC (μg/ml) at 24 hours, MRSA 1” value was over 128 µg/mL and the “MIC (μg/ml) at 24 hours, MRSA 2” value was determined as 32 µg/mL. Also, in experiment [2], the “MIC (μg/ml) at 24 hours, VRE 1” value is over 128 µg/mL and the “MIC (μg/ml) at 24 hours, VRE 2” value was over 128 µg/mL. In experiment [3], the “MIC (μg/ml) at 24 hours, E. coli” value was over 128 µg/mL. Moreover, in experiment [4], the “MIC (μg/ml) at 24 hours, P. aeruginosa” value was over 128 µg/mL.
Regarding `Cl.N=C(NN=Cc1cnc2ccccc2c1)NN=Cc1cnc2ccccc2c1` [NCL 139], in experiment [1], the “MIC (μg/ml) at 24 hours, MRSA 1” value is over 128 µg/mL and the “MIC (μg/ml) at 24 hours, MRSA 2” value is over 128 µg/mL. Further, in experiment [2], the “MIC (μg/ml) at 24 hours, VRE 1” value is over 128 µg/mL and the “MIC (μg/ml) at 24 hours, VRE 2” value is over 128 µg/mL. In addition, the “MIC (μg/ml) at 24 hours, E. coli” value in experiment [3] is over 128 µg/mL. Moreover, in experiment [4], the “MIC (μg/ml) at 24 hours, P. aeruginosa” value was over 128 µg/mL.
Consider `CSc1ccc(C=NNC(=N)NN=Cc2ccc(SC)cc2)cc1.Cl` [NCL 140], for which the “MIC (μg/ml) at 24 hours, MRSA 2” value in experiment [1] was 16 µg/mL and 32 µg/mL. For the same compound, the “MIC (μg/ml) at 24 hours, VRE 2” value in experiment [2] is 8 µg/mL and 16 µg/mL. Further, the “MIC (μg/ml) at 24 hours, E. coli” value in experiment [3] is over 128 µg/mL. Further, in experiment [4], the “MIC (μg/ml) at 24 hours, P. aeruginosa” value is over 128 µg/mL.
With `Cl.N=C(NN=Cc1csc2ccc(Cl)cc12)NN=Cc1csc2ccc(Cl)cc12` [NCL 141], in experiment [1], the “MIC (μg/ml) at 24 hours, MRSA 1” value is over 128 µg/mL and the “MIC (μg/ml) at 24 hours, MRSA 2” value was over 128 µg/mL. In addition, in experiment [2], the “MIC (μg/ml) at 24 hours, VRE 1” value was 16 µg/mL and the “MIC (μg/ml) at 24 hours, VRE 2” value is over 128 µg/mL. In addition, the “MIC (μg/ml) at 24 hours, E. coli” value in experiment [3] is over 128 µg/mL. In addition, the “MIC (μg/ml) at 24 hours, P. aeruginosa” value in experiment [4] was over 128 µg/mL.
As to `Cl.N=C(NNCc1ccccc1)NNCc1ccccc1` [NCL 142], in experiment [1], the “MIC (μg/ml) at 24 hours, MRSA 1” value was over 128 µg/mL and the “MIC (μg/ml) at 24 hours, MRSA 2” value is over 128 µg/mL. Besides, in experiment [2], the “MIC (μg/ml) at 24 hours, VRE 1” value was over 128 µg/mL and the “MIC (μg/ml) at 24 hours, VRE 2” value is over 128 µg/mL. Further, the “MIC (μg/ml) at 24 hours, E. coli” value in experiment [3] was over 128 µg/mL. The “MIC (μg/ml) at 24 hours, P. aeruginosa” value in experiment [4] was over 128 µg/mL.
Regarding `CC(=NNC(=N)NN=C(C)c1ccccc1)c1ccccc1.Cl` [NCL 143], in experiment [1], the “MIC (μg/ml) at 24 hours, MRSA 1” value was found to be 16 µg/mL and the “MIC (μg/ml) at 24 hours, MRSA 2” value came out at 16 µg/mL. Moreover, in experiment [2], the “MIC (μg/ml) at 24 hours, VRE 1” value is 8 µg/mL and the “MIC (μg/ml) at 24 hours, VRE 2” value is 8 µg/mL. For the same compound, the “MIC (μg/ml) at 24 hours, E. coli” value in experiment [3] is over 128 µg/mL. Besides, the “MIC (μg/ml) at 24 hours, P. aeruginosa” value in experiment [4] was over 128 µg/mL.
Consider `Cl.N=C(NN=Cc1ccc(Br)o1)NN=Cc1ccc(Br)o1` [NCL 144], for which, in experiment [1], the “MIC (μg/ml) at 24 hours, MRSA 1” value is over 128 µg/mL and the “MIC (μg/ml) at 24 hours, MRSA 2” value was over 128 µg/mL. Further, in experiment [2], the “MIC (μg/ml) at 24 hours, VRE 1” value was over 128 µg/mL and the “MIC (μg/ml) at 24 hours, VRE 2” value was over 128 µg/mL. The “MIC (μg/ml) at 24 hours, E. coli” value in experiment [3] is over 128 µg/mL. Moreover, in experiment [4], the “MIC (μg/ml) at 24 hours, P. aeruginosa” value was over 128 µg/mL.
For the compound `Cl.N=C(NN=Cc1ccc(Cl)o1)NN=Cc1ccc(Cl)o1` [NCL 145], in experiment [1], the “MIC (μg/ml) at 24 hours, MRSA 1” value was over 128 µg/mL and the “MIC (μg/ml) at 24 hours, MRSA 2” value is over 128 µg/mL. Also, in experiment [2], the “MIC (μg/ml) at 24 hours, VRE 1” value was over 128 µg/mL and the “MIC (μg/ml) at 24 hours, VRE 2” value is over 128 µg/mL. In addition, in experiment [3], the “MIC (μg/ml) at 24 hours, E. coli” value is over 128 µg/mL. Besides, the “MIC (μg/ml) at 24 hours, P. aeruginosa” value in experiment [4] is over 128 µg/mL.
Consider `Cl.N=C(NN=Cc1ccc2[nH]ccc2c1)NN=Cc1ccc2[nH]ccc2c1` [NCL 146], for which, in experiment [1], the “MIC (μg/ml) at 24 hours, MRSA 1” value was determined as 8 µg/mL and the “MIC (μg/ml) at 24 hours, MRSA 2” value is 16 µg/mL. Further, in experiment [2], the “MIC (μg/ml) at 24 hours, VRE 1” value amounted to 16 µg/mL and the “MIC (μg/ml) at 24 hours, VRE 2” value worked out at 16 µg/mL. In addition, the “MIC (μg/ml) at 24 hours, E. coli” value in experiment [3] is over 128 µg/mL. In experiment [4], the “MIC (μg/ml) at 24 hours, P. aeruginosa” value is over 128 µg/mL.
Take `Cl.N=C(NN=Cc1cnc2ccccc2n1)NN=Cc1cnc2ccccc2n1` [NCL 147]: in experiment [1], the “MIC (μg/ml) at 24 hours, MRSA 1” value is over 128 µg/mL and the “MIC (μg/ml) at 24 hours, MRSA 2” value was over 128 µg/mL. Besides, in experiment [2], the “MIC (μg/ml) at 24 hours, VRE 1” value was over 128 µg/mL and the “MIC (μg/ml) at 24 hours, VRE 2” value was over 128 µg/mL. Also, the “MIC (μg/ml) at 24 hours, E. coli” value in experiment [3] was over 128 µg/mL. In experiment [4], the “MIC (μg/ml) at 24 hours, P. aeruginosa” value is over 128 µg/mL.
For `Cl.N=C(NN=Cc1ccc(C=CCC(=O)O)cc1)NN=Cc1ccc(C=CCC(=O)O)cc1` [NCL 148], in experiment [1], the “MIC (μg/ml) at 24 hours, MRSA 1” value is over 128 µg/mL and the “MIC (μg/ml) at 24 hours, MRSA 2” value was over 128 µg/mL. For the same compound, in experiment [2], the “MIC (μg/ml) at 24 hours, VRE 1” value is over 128 µg/mL and the “MIC (μg/ml) at 24 hours, VRE 2” value is over 128 µg/mL. In addition, the “MIC (μg/ml) at 24 hours, E. coli” value in experiment [3] was over 128 µg/mL. For the same compound, the “MIC (μg/ml) at 24 hours, P. aeruginosa” value in experiment [4] was over 128 µg/mL.
With `Cl.N=C(N/N=C/c1ccncc1)N/N=C/c1ccncc1` [NCL 149], in experiment [1], the “MIC (μg/ml) at 24 hours, MRSA 1” value is over 128 µg/mL and the “MIC (μg/ml) at 24 hours, MRSA 2” value was over 128 µg/mL. Besides, in experiment [2], the “MIC (μg/ml) at 24 hours, VRE 1” value is over 128 µg/mL and the “MIC (μg/ml) at 24 hours, VRE 2” value is over 128 µg/mL. Further, the “MIC (μg/ml) at 24 hours, E. coli” value in experiment [3] was over 128 µg/mL. The “MIC (μg/ml) at 24 hours, P. aeruginosa” value in experiment [4] was over 128 µg/mL.

The values are drawn from patent US10253002B2, “Compounds and methods of treating infections” (Neoculi Pty Ltd., priority 2013, dated 2019).
